From patent publication US4562151A, “Stabilization of L-phenylalanine ammonia-lyase enzyme” (Monsanto Company, priority 1983, dated 1985) come the findings set out here.

Experiment [1] concerns L-phenylalanine ammonia-lyase. Nature of the experiment: Relative effect of polyhydric alcohols on PAL activity, 19 hour incubation (Table III). The format is biochemical, R. glutinis. Conditions: for PAL Enzyme Activity: 240 mM cinnamate, 6.0 M ammonia, pH 11.5, 37° C., cells about 90 mg/ml, 19 hour incubation, control without alcohol 28; for Stabilizing effect on L-phenylalanine ammonia-lyase: monohydric and dihydric alcohols, concentration not given. How it is done: The reaction mixture consisted of 6.0 M ammonia, 240 mM cinnamate, R. glutinis cells and the above described polyhydric alcohol at pH 11.5 and 37° C. The final concentration of R. glutinis cells was approximately 90 mg/ml (wet weight). L-phenylalanine formation was determinted by high pressure liquid chromatography following a 19 hour incubation period.

The test system of experiment [2] is L-phenylalanine ammonia-lyase enzyme. Briefly: 24 hour time course of L-phenylalanine formation with and without glycerol (Figure). The format is biochemical, R. glutinis. Conditions: 2.0 M glycerol, 200 mM cinnamate, 6.0 M ammonia, pH 11.5, 37° C., cells about 90 mg/ml. On the procedure: Further experiments have shown that polyhydric alcohols, such as glycerol, have a substantial effect on the short-term activity of the L-phenylalanine ammonia-lyase enzyme in addition to a stabilizing effect on the long-term activity of the enzyme. The relative rates of L-phenylalanine formation from trans-cinnamate for a twenty-four hour period in the presence and absence of glycerol are plotted in the graph shown in the Figure. The reaction mixture consisted of 200 mM cinnamate, 6.0 M ammonia, 2.0 M glycerol and R. glutinis cells at pH 11.5 and 37° C. The final concentration of R. glutinis cells was approximately 90 mg/ml(wet weight). L-phenylalanine formation was determined by high pressure liquid chromatography. The amount of L-phenylalanine formed in twenty-four hours in the absence of glycerol was taken as 100.

Experiment [3] shares this test system. Briefly: Effect of cinnamate concentration on PAL activity, R. glutinis cells, with or without glycerol (Table I). The format is biochemical, Rhodotorula glutinis. Conditions: for PAL Activity with glycerol: glycerol 2.3 M, ammonia 6.8 M, pH 11.2, 37° C., activity at 46.1 mM cinnamate taken as 100. An excerpt: For conciseness, the following explanation and examples of the present invention are described with respect to L-phenylalanine ammonia-lyase enzyme from Rhodotorula glutinis cells (ATCC 15385) known to catalyze the reversible reaction between trans-cinnamate and an ammonia donor to form L-phenylalanine. To facilitate transport of substrate and product across the cell membrane about 3 to 5 microliters of polyethyleneglycol-p-isooctylphenylether per gram wet weight of cells is preferably added to the microbial cell suspension. It should be understood that the addition of polyethylene glycol-p-isooctylphenylether or other detergents which increase the permeability of cell membranes is not necessary for practice of the present invention.
The effects of increasing cinnamate concentrations on the reactivity of L-phenylalanine ammonia-lyase enzyme with and without the addition of glycerol are shown in Table I.
^(1) glycerol concentration = 2.3 M, ammonia concentration = 6.8 M; p
of the reaction mixture = 11.2; temperature = 37° C.; concentratio
of R. glutinis cells = 90 mg/ml. Enzyme activity at 46.1 mM cinnamate was
^(2) ammonia concentration = 6.8 M; pH of the reaction mixture = 11.2
temperature = 37° C.; concentration of R. glutinis cells = 90
mg/ml. Enzyme activity at 60.0 mM cinnamate was taken as 100.

As for `OC[C@@H](O)[C@@H](O)[C@H](O)[C@H](O)CO` [D-mannitol], the “PAL Enzyme Activity” value in experiment [1] (alcohol 0.43 M) was 29.

Consider `OC[C@@H](O)[C@@H](O)[C@H](O)[C@@H](O)CO` [D-sorbitol], for which the “PAL Enzyme Activity” value in experiment [1] (alcohol 0.43 M) was 74.

`CCCCO` [butanol]: the “Stabilizing effect on L-phenylalanine ammonia-lyase” value in experiment [1] is on record as “found not to generate the stabilizing effect”.

In the case of `CCO` [ethanol], in experiment [1], the “Stabilizing effect on L-phenylalanine ammonia-lyase” value is given as “found not to generate the stabilizing effect”.

On to `OCCO` [ethylene glycol], for which the “Stabilizing effect on L-phenylalanine ammonia-lyase” value in experiment [1] was “found not to generate the stabilizing effect”.

With `OCC(O)CO` [glycerol], in experiment [1] (alcohol 0.72 M), the “PAL Enzyme Activity” value is 100. In addition, the “Instantaneous rate of reaction (initial slope of curve) versus control without glycerol” value in experiment [2] was “higher instantaneous rate of reaction”. Besides, the “L-phenylalanine formed during the 12 to 24 hr period (long term stabilizing effect)” value in experiment [2] (without glycerol enzyme essentially inactivated after 12 hours) is reported as “substantial amount of L-phenylalanine formed during the 12 to 24 hr period”. The “PAL Activity with glycerol” value in experiment [3] (46.1 mM cinnamate, R. glutinis cells 90 mg/ml) is on record as 100; in experiment [3] (140.0 mM cinnamate, cells 90 mg/ml), 100; in experiment [3] (185.0 mM cinnamate, cells 90 mg/ml), 75; in experiment [3] (250.0 mM cinnamate, cells 90 mg/ml), 59. In experiment [3] (250 mM versus 50 mM cinnamate, in presence of glycerol), the “Activity of L-phenylalanine ammonia-lyase at 250 mM cinnamate relative to that measured at 50 mM” value is recorded as “about 60%”.

On to `CO` [methanol], for which the “Stabilizing effect on L-phenylalanine ammonia-lyase” value in experiment [1] was “found not to generate the stabilizing effect”.
